Assay results published in publication PMC9271048, “Probing strigolactone perception mechanisms with rationally designed small-molecule agonists stimulating germination of root parasitic weeds” (Nature Communications, 2022).
pEC50, pIC50: −log10 of the molar value. “Also recorded” adds a separate entry of the source. Read-outs that look alike come from different tables or passages of the source.

How the values were obtained:
ShHTL7-SMAX1 interaction = assay: Yeast two-hybrid assay ShHTL7-SMAX1; type: cell-based, Striga hermonthica
Experimental: (§1) To construct plasmids for yeast two-hybrid assays, the CDS of ShHTL7 and AtD14 were cloned into yeast expression vector pBrigde to generate BD-ShHTL7 and BD-AtD14, and the CDS of ShMAX2, AtMAX2, SMAX1 were cloned into pGADT7 to make Gal4 DNA activation domain (AD) constructs, respectively. Primers used for yeast expression vector construction are listed in Supplementary Table 6. Yeast two-hybrid assays were performed using the Yeastmaker Yeast Transformation System 2 (Clontech). In brief, Yeast AH109 cells were co-transformed with specific bait and prey constructs and coated on selective growth medium SD/-Leu-Trp for 3 days at 30 °C, pick the positive constructs into liquid selective growth medium SD/-Leu-Trp shaking for 36 h at 30 °C. Washed yeast cells three times and diluted, made sure OD600 reached 2.5, then serial 10-fold dilutions of yeast cultures were spotted onto selective growth mediums that were supplemented with different concentrations of rac-GR24 and tested molecules, respectively. All yeast transformants were grown on a selective growth medium at 30 °C for 3 days.

[1] = tested on: ShHTL7-AtMAX2 interaction; assay: Yeast two-hybrid assay ShHTL7-AtMAX2; type: cell-based, Striga hermonthica
Experimental: as §1

[2] = tested on: ShHTL7-ShMAX2 interaction; assay: Yeast two-hybrid assay ShHTL7-ShMAX2; type: cell-based, Striga hermonthica
Experimental: as §1

Striga hermonthica seeds = assay: S. hermonthica seed germination assay; type: in vivo; conditions: source data of Fig. 2d, average of 2 or 3; for pEC50: Striga hermonthica, 48 h
Experimental: Two hundred mg of Striga hermonthica seeds were surface sterilized in 2% sodium hypochlorite containing 0.02% Tween-20 for 5 min, and then washed five times with sterile MilliQ water. The sterilized Striga seeds were spread on sterile glass fiber-filter papers (Whatman® GF/A, Sigma–Aldrich) in Petri dishes containing filter paper moistened with 3 mL sterile MilliQ water. The Petri dishes were incubated 6–8 days at 30 °C for preconditioning after which the seeds were dried in a laminar sterile air flow for 2 h. The germination bioassay was performed in 0.1% agarose and 0.1 ppm rac-GR24 was used as a positive control. Stocks of rac-GR24 and other compounds were prepared in acetone and diluted before use. Dried preconditioned seeds were added to the agarose containing the relevant compound, which was subsequently divided over three wells of a 12-well Cell Culture Treated Plates (Fisher Scientific, Landsmeer, the Netherlands). The plates were sealed and incubated in the dark at 30 °C for 2 days. The Striga germination rate in % (GR%) was calculated for each replicate using the formula: GR% = (Ngs/Nts) × 100, where Ngs is the number of germinated seeds per well and Nts is the total number of seeds per well. EC50 values of the compounds were calculated using http://www.ic50.tk/index.html.

max4-1 = assay: Arabidopsis shoot branching assay; type: in vivo, Arabidopsis thaliana; conditions: max4-1, 1 μM; Fig. 4c source data
Experimental: For Arabidopsis root hair assay, Arabidopsis thaliana (Col-0) seeds were surface sterilized by using 1% NaClO solution for 60 s and 75% ethanol solution for 60 s, and then washed by sterilized distilled water five times. The sterilized seeds were sowed on 1/2 MS media (2.202 g/L Murashige and Skoog basal salts, 0.5 g/L MES, 10 g/L sucrose, and 10 g/L agar, pH 5.7) which contained indicated concentrations of compounds. 0.1% DMSO was used as a negative control. The plates were placed 4 days at 4 °C and then placed vertically under fluorescent white light (100–150 μmol m^−2 s^−1) with 16 h light and 8 h dark at 20 ± 1 °C for 15 days[17],[55]. The root hairs were imaged by OLYMPUS (U-HGLGPS), and the lengths were analyzed by ImageJ. The experiments were repeated three times. For Arabidopsis shoot branching assay: Col-0 and max4-1 seeds were used in this experiment. Seeds surface sterilization was sterilized as described above. The Arabidopsis seedlings were placed on top of the cut black microcentrifuge tubes filled with 1/2 MS. The tubes were placed 4 days at 4 °C and then moved to fluorescent white light (100–150 μmol m^−2 s^−1) with 16 h light and 8 h dark at 20 ± 1 °C for 7 days[26]. The germinated seedlings were grown on hydroponic culture solutions (containing indicated concentrations of 4a, (R)- and (S)-4a), with the solution containing 0.01% DMSO as the negative control. The solutions were renewed every week. After 4 weeks, the numbers of rosette axillaries were analyzed.

AtD14 = biological target: T1, AtD14 (Arabidopsis thaliana, UniProt Q9SQR3); assay: Competitive inhibition of AtD14 with YLG as substrate; type: biochemical
T1 construct: His tag; made in house; host or cells: E. coli BL21
T1 sequence (Q9SQR3 1-267): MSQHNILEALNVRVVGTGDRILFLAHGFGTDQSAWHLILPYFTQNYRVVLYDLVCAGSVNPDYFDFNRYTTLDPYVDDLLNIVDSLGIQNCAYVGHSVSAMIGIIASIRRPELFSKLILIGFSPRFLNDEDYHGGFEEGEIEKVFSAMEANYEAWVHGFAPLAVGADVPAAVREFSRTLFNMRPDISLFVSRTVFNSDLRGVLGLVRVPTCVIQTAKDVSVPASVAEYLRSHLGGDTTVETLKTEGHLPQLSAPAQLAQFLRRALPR
Experimental: The excitation and emission wavelengths of YLG are 480 and 520 nm, respectively. We used a fluorescence spectrophotometer (CARY Eclipse) to detect the fluorescence intensity change of YLG during the enzymatic hydrolysis assay process. All the testing compounds and YLG were dissolved in DMSO and prepared as stock solutions just before use. […] The changes of fluorescence at 520 nm of each well were recorded every 1 min for 30 min. Using the reaction mixture without adding enzyme and tested compounds as the background control. After subtracting the background hydrolysis, a linear fluorescence increase in 8 min was used for further inspection. The IC50 values were determined via fitting relative inhibition percentages with the varying concentrations of compounds in Microsoft Excel.

[3] = YLG as the substrate, read-out: Competitive AtD14 inhibitory activity IC50

SMILES	induction of ShHTL7-SMAX1 interaction (Y2H) (ShHTL7-SMAX1 interaction; 200 μM)	induction of ShHTL7-AtMAX2 interaction (Y2H) ([1]; 200 μM)	pEC50 (Striga hermonthica seeds)	No. of axillary shoots, source data average (max4-1)	pIC50 (AtD14; [3])	induction of ShHTL7-SMAX1 interaction (Y2H) (ShHTL7-SMAX1 interaction; 1 μM)	induction of ShHTL7-AtMAX2 interaction (Y2H) ([1]; 1 μM)	induction of ShHTL7-ShMAX2 interaction (Y2H) ([2]; 0.01 μM (10 nM))	induction of ShHTL7-ShMAX2 interaction (Y2H) ([2]; 1 μM)	other results
CC1=CC(CC(=O)N2CCN(C(=O)COc3ccc(Br)cc3C)CC2)OC1=O (stereo not drawn) [4i]	almost no ligand-induced interactions were observed	almost no ligand-induced interactions were observed								induction of ShHTL7-ShMAX2 interaction (Y2H) ([2]; 200 μM): almost no ligand-induced interactions were observed
CC1=C[C@@H](OC(=O)N2CCN(C(=O)COc3ccc(Br)cc3C)CC2)OC1=O [(R)-4a]	did induce the interaction	did induce the interaction	8.96	3.667	< 4.00					induction of ShHTL7-SMAX1 interaction (Y2H) (ShHTL7-SMAX1 interaction; 1 and 5 μM): no ShHTL7-SMAX1 or ShHTL7-AtMAX2 interactions were detected; induction of ShHTL7-AtMAX2 interaction (Y2H) ([1]; 1 and 5 μM): no ShHTL7-SMAX1 or ShHTL7-AtMAX2 interactions were detected
CC1=CC(OC(=O)N2CCN(C(=O)COc3ccc(Br)cc3C)CC2)OC1=O (stereo not drawn) [4a]			11.97	3.5	< 4.00	strongly induce the interaction	strongly induce the interaction	could still promote the ShHTL7-ShMAX2 interaction	strongly induce the interaction	
CC1=CC(OC(=O)N2CCN(C(=O)COc3ccc(Br)cc3C)CC2)CC1=O (stereo not drawn) [4g]	only weak ligand-induced interactions	only weak ligand-induced interactions								
CC1=C[C@H](OC(=O)N2CCN(C(=O)COc3ccc(Br)cc3C)CC2)OC1=O [(S)-4a]				2.6	< 4.00	strongly induce the interaction	strongly induce the interaction	could still promote the ShHTL7-ShMAX2 interaction; also recorded: promoted ShHTL7-ShMAX2 interaction	strongly induce the interaction	
CC1=C[C@H](O/C=C2/C(=O)O[C@@H]3c4ccccc4C[C@H]23)OC1=O (racemic) [rac-GR24, reference compound]										S. hermonthica germination EC50 values, source data average (Striga hermonthica seeds): 10.4655; pIC50 (AtD14; source data of Fig. 4b and Supplementary Fig. 14, read-out: Competitive AtD14 inhibitory activity IC50, source data average): 5.18
